Converted amounts (≈) assume the structure as drawn.
Legend:
[1] = test system: E. coli clinical isolates; test: MIC by broth microdilution against clinical isolates of E. coli; format: cell-based
[2] = test system: CTX-M-15-producer isogenic strain; test: Disc diffusion test, CTX-M-15-producer; format: cell-based, E. coli; settings: cefotaxime disc 30 µg
[3] = test system: isogenic strain producing CTX-M-15; test: Time-kill kinetic assay, CTX-M-15-producing isogenic strain; format: cell-based, E. coli; settings: cefotaxime 2 µg/mL + inhibitor 4 µg/mL; CTX-M-15 strain
[4] = test system: isogenic strain producing KPC-2; test: Time-kill kinetic assay, KPC-2-producing isogenic strain; format: cell-based, E. coli; settings: imipenem 4 µg/mL + inhibitor 4 µg/mL, KPC-2 strain
[5] = test system: K. pneumoniae clinical isolates; test: MIC by broth microdilution against clinical isolates of K. pneumoniae; format: cell-based; settings: for MIC range: K. pneumoniae clinical isolates, 25 isolates
[6] = test system: KPC-2-producer isogenic strain; test: Disc diffusion test, KPC-2-producer; format: cell-based, E. coli; settings: imipenem disc 10 µg
KPC-2 = KPC-2 (Klebsiella pneumoniae, UniProt Q9F663); test: Purified β-lactamase inhibition assay with nitrocefin, KPC-2; format: biochemical, K. pneumoniae
KPC-2, sequence (Q9F663 25-293, looked up): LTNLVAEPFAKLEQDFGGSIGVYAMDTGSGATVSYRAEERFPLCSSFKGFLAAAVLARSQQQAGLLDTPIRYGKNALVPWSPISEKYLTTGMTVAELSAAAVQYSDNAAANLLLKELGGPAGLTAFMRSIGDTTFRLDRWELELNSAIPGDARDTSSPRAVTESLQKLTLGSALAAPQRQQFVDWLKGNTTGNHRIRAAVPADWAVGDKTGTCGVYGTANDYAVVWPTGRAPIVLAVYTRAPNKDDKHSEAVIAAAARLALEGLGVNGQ

CTX-M-15 [7] = biological target: CTX-M-15 (Escherichia coli, UniProt Q9EXV5); test: Purified β-lactamase inhibition assay with nitrocefin, CTX-M-15; format: biochemical, E. coli
CTX-M-15 (Escherichia coli, UniProt Q9EXV5), sequence (Q9EXV5 29-291): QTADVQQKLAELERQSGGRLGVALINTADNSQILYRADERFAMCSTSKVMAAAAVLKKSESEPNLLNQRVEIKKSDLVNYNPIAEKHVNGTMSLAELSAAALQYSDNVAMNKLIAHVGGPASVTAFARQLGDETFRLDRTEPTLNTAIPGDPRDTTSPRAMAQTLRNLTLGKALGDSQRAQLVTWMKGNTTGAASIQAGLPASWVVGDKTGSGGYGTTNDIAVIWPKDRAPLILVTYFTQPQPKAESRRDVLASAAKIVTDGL

CTX-M-15 [8] = settings: ref 17 (Faheem et al.); cited from earlier work

CC1=C(C(=O)O)N2C(=O)[C@@H](NC(=O)[C@H](N)c3ccccc3)[C@H]2SC1 [Cefalexin, cefalexin]
MIC90 ([1]; Escherichia coli): 512 µg/mL (≈ 1470 µM)

CO/N=C(\C(=O)N[C@@H]1C(=O)N2C(C(=O)O)=C(COC(C)=O)CS[C@H]12)c1csc(N)n1 [Cefotaxime, cefotaxime]
disc diffusion result, antibiotic disc only [2]: resistance | MIC range ([1]; E. coli clinical isolates, 25 isolates): 64 to 128 µg/mL

O=C(O)[C@H]1/C(=C/CO)O[C@@H]2CC(=O)N21 [Clavulanic acid, clavulanic acid]
incubation time after which viable count was below the limit of detection [3]: 10 h | reduction in CFU ([4]; after 6 h of incubation): 2 log10

C[C@@H](O)[C@H]1C(=O)N2C(C(=O)O)=C(S[C@@H]3CN[C@H](C(=O)Nc4cccc(C(=O)O)c4)C3)[C@H](C)[C@H]12 [Ertapenem, ertapenem]
MIC range [5]: 8 to 256 µg/mL | MIC range ([5]; listed as ertapenem): 8 to 256 µg/mL | MIC90 ([5]; Klebsiella pneumoniae): 32 µg/mL (≈ 67.3 µM)

C[C@@H](O)[C@H]1C(=O)N2C(C(=O)O)=C(SCCN=CN)C[C@H]12 [Imipenem, imipenem]
disc diffusion result, antibiotic disc only [6]: resistance | MIC range [5]: 64 to 512 µg/mL

C[C@]1(Cn2ccnn2)[C@H](C(=O)O)N2C(=O)C[C@H]2S1(=O)=O [Tazobactam, tazobactam]
incubation time after which viable count was below the limit of detection [3]: 6 h | IC50 (KPC-2): 69.6 µM | Ki (KPC-2): 29.2 µM | IC50 (CTX-M-15 [7]): 58.3 µM | Ki (CTX-M-15 [7]; Ki, CTX-M-15, nitrocefin substrate): ~31 µM | decrease of the MICs of some cephalosporin antibiotics (CTX-M-15 [8]): 2–16 folds | incubation time after which viable count was below the limit of detection [4]: 8 h

Reference: paper PMC11308155 (Microbial Cell Factories, 2024)
